Test results reported in patent US11434246B2, “EP4 antagonists” (Eisai R&D Management Co., Ltd., priority 2015, dated 2022).

target: EP4 (Homo sapiens, UniProt P35408); assay: EP4 Antagonism by CRE-PLAP Reporter Assay (SE302 cells, PGE2-stimulated); assay type: cell-based; design: HEK293 cells express endogenous EP4; endogenous in cells; host or cells: SE302 (HEK293 clone with CRE-PLAP reporter); conditions: SE302 (HEK293) cells, 3 ng/mL PGE2, overnight; single or multiple assay average values
Excerpt: PGE2 and [^3H]-labelled PGE2 were purchased from Cayman Chemical (Ann Arbor, Mich.) and Perkin Elmer (Waltham, Mass.), respectively. Mouse breast 4T1 cells (CRL-2539) were obtained from American Tissue Culture Collection. SE302 cell line is a clone of the HEK293 cells containing cAMP response element (CRE) promoter that when activated drives secretion of placental-like alkaline phosphatase (PLAP). HEK293 cells express endogenous EP4 and show induction of PLAP in response to PGE2 and EP4 agonists, but not EP1, 2 or 3 agonists (Chen Q, Muramoto K, Masaaki N, Ding Y, Yang H, Mackey M, Li W, Inoue Y, Ackermann K, Shrota H, Matsumoto I, Spyvee M, Schiller S, Sumida T, Gusovsky F, and Lamphier M. A novel antagonist of the prostaglandin E2 EP4 receptor inhibits Th1 differentiation and Th17 expansion and is orally active in arthritis models. British J Pharmacol, 2010, 160: 292-310). BalB/C female mice at 7-8 week age were purchased from Jackson Laboratory (Bar Harbor, Me.). Mice were maintained under specific pathogen-free conditions.
EP4 Antagonism by CRE-PLAP Reporter Assay: SE302 cells were maintained in DMEM/F12 (50:50) (MediaTech) supplemented with 10% FBS (Tissue Culture Biologicals) plus penicillin/streptomycin. When used for assays, cells were plated in a 96-well plate at 2×10^4 cells/100 μL/well in serum-free assay medium (DMEM/F12 supplemented with 0.1% BSA plus penicillin/streptomycin) and incubated for 4-6 h. Cells were then stimulated with 3 ng/mL of PGE2 in the presence or absence of various concentrations of test compound overnight, and PLAP activity was measured by mixing 15 μL of culture supernatants with 75 μL of Lumi-phos (Lumigen, Inc.) and 60 μL of assay buffer containing 8 mmol/L MgSO4 in 0.1 mol/L carbonate-bicarbonate buffer pH11 in a new 96-well black plate and incubated for 2 h at room temperature. The intensity of luminescence, which reflected the PLAP activity in the supernatant, was quantified with an Envision 2101 Multilabel Reader. Values obtained from DMSO treated samples in the presence of PGE2 were defined as 100% of control, whereas values obtained from DMSO treated samples in the absence of PGE2 were defined as 0% of control. % of control for compound treated samples was calculated as follows: (actual reading−0% of control)/(100% of control−0% of control)×100. IC50 value for each individual experiment was calculated using GraphPad Prism 6.02 (Lake Forest, Calif.) with % of control values.
Compounds of the present invention were assayed according to the methods as described above, and IC50 values, which may be single assay values or multiple assay average values, are summarized in Table 1. Compounds marked “ABS” show absolute stereochemistry.

Sequence of EP4 (P35408 whole entry): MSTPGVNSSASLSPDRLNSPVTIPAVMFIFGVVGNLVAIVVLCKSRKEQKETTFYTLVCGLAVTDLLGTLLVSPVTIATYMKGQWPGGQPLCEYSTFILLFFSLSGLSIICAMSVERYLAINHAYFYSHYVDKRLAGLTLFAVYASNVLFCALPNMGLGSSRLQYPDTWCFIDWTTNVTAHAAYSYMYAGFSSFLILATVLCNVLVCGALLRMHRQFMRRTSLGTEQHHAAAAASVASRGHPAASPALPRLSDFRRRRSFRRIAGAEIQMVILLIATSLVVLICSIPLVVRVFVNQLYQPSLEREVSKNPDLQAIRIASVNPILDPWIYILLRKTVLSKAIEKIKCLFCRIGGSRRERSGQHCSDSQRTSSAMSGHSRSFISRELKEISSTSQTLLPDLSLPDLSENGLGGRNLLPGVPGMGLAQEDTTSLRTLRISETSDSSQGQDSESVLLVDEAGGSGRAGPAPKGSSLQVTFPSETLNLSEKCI

| IC50 | Structure (SMILES) |
| --- | --- |
| 39.3 nM | C[C@H](NC(=O)c1c(C(F)(F)F)nn2c1N(Cc1cccc(C(F)(F)F)c1)CC2)c1ccc(C(=O)NS(C)(=O)=O)cc1 [Compound 55, (S)—N-(1-(4-((methylsulfonyl)carbamoyl)phenyl)ethyl)-6-(trifluoromethyl)-1-(3-(trifluoromethyl)benzyl)-2,3-dihydro-1H-imidazo[1,2-b]pyrazole-7-carboxamide] |
| 1.2 nM | C[C@H](NC(=O)c1c(C(F)(F)F)nn2c1N(Cc1cccc(CF)c1)CC2)c1ccc(C(=O)O)cc1 [Compound 67, (S)-4-(1-(1-(3-(fluoromethyl)benzyl)-6-(trifluoromethyl)-2,3-dihydro-1H-imidazo[1,2-b]pyrazole-7-carboxamido)ethyl)benzoic Acid] |
| 0.866 nM | C[C@H](NC(=O)c1c(C(F)(F)F)nn2c1N(Cc1cccc(CCCF)c1)CC2)c1ccc(C(=O)O)cc1 [Compound 96, (S)-4-(1-(1-(3-(3-Fluoropropyl)benzyl)-6-(trifluoromethyl)-2,3-dihydro-1H-imidazo[1,2-b]pyrazole-7-carboxamido)ethyl)benzoic Acid] |
| 1.49 nM | C[C@H](NC(=O)c1c(C(F)(F)F)nn2c1N(Cc1ccc(N)cc1)CC2)c1ccc(C(=O)O)cc1 [Compound 73, (S)-4-(1-(1-(4-aminobenzyl)-6-(trifluoromethyl)-2,3-dihydro-1H-imidazo[1,2-b]pyrazole-7-carboxamido)ethyl)benzoic Acid] |
| 100 nM | C[C@H](NC(=O)c1c(C(F)(F)F)nn2c1N(c1ccc(C(F)(F)F)cc1)CCC2)c1ccc(C(=O)O)cc1 [Compound 51, (S)-4-(1-(2-(trifluoromethyl)-4-(4-(trifluoromethyl)phenyl)-4,5,6,7-tetrahydropyrazolo[1,5-a]pyrimidine-3-carboxamido)ethyl)benzoic Acid] |
| 34.7 nM | O=C(O)c1ccc([C@H](CO)NC(=O)c2c(C(F)(F)F)nn3c2N(Cc2cccc(C(F)(F)F)c2)CC3)cc1 [Compound 87, (R)-4-(2-hydroxy-1-(6-(trifluoromethyl)-1-(3-(trifluoromethyl)benzyl)-2,3-dihydro-1H-imidazo[1,2-b]pyrazole-7-carboxamido)ethyl)benzoic Acid] |
| 21.8 nM | C[C@H](NC(=O)c1c(C(F)(F)F)nn2c1N(Cc1ccc(CCCF)cc1)CC2)c1ccc(C(=O)O)cc1 [Compound 97, (S)-4-(1-(1-(4-(3-fluoropropyl)benzyl)-6-(trifluoromethyl)-2,3-dihydro-1H-imidazo[1,2-b]pyrazole-7-carboxamido)ethyl)benzoic Acid] |
| 11.6 nM | C[C@H](NC(=O)c1c(C(F)(F)F)nn2c1N(Cc1cc(CCCF)cc(C(F)(F)F)c1)CC2)c1ccc(C(=O)O)cc1 [Compound 99, (S)-4-(1-(1-(3-(3-Fluoropropyl)-5-(trifluoromethyl)benzyl)-6-(trifluoromethyl)-2,3-dihydro-1H-imidazo[1,2-b]pyrazole-7-carboxamido)ethyl)benzoic Acid] |
| 0.31 nM | C[C@H](NC(=O)c1c(C(F)(F)F)nn2c1N(Cc1cccc(C(F)(F)F)c1)CC2)c1ccc(-c2nn[nH]n2)cc1 [Compound 36, (S)—N-(1-(4-(2H-tetrazol-5-yl)phenyl)ethyl)-6-(trifluoromethyl)-1-(3-(trifluoromethyl)benzyl)-2,3-dihydro-1H-imidazo[1,2-b]pyrazole-7-carboxamide] |
| 0.57 nM | CSc1cc(CN2CCn3nc(C(F)(F)F)c(C(=O)N[C@@H](C)c4ccc(C(=O)O)cc4)c32)cc(C(F)(F)F)c1 [Compound 62, (S)-4-(1-(1-(3-(methylthio)-5-(trifluoromethyl)benzyl)-6-(trifluoromethyl)-2,3-dihydro-1H-imidazo[1,2-b]pyrazole-7-carboxamido)ethyl)benzoic Acid] |
| 100 nM | C[C@H](NC(=O)c1c(C(F)(F)F)nn2c1N(c1cccc(Cl)c1)CC2)c1ccc(C(=O)O)cc1 [Compound 49, (S)-4-(1-(1-(3-chlorophenyl)-6-(trifluoromethyl)-2,3-dihydro-1H-imidazo[1,2-b]pyrazole-7-carboxamido)ethyl)benzoic Acid] |
| 1.4 nM | C[C@H](NC(=O)c1c(C(F)(F)F)nn2c1N(Cc1ccccc1F)CC2)c1ccc(C(=O)O)cc1 [Compound 16, (S)-4-(1-(1-(2-fluorobenzyl)-6-(trifluoromethyl)-2,3-dihydro-1H-imidazo[1,2-b]pyrazole-7-carboxamido)ethyl)benzoic Acid] |
| 9.19 nM | Cc1nn2c(c1C(=O)NC1(c3ccc(C(=O)O)cc3)CC1)N([C@H](C)c1ccc(C(F)(F)F)cc1)CC2 [Compound 34, (R)-4-(1-(6-methyl-1-(1-(4-(trifluoromethyl)phenyl)ethyl)-2,3-dihydro-1H-imidazo[1,2-b]pyrazole-7-carboxamido)cyclopropyl)benzoic Acid] |
| 0.68 nM | CCc1nn2c(c1C(=O)N[C@@H](C)c1ccc(C(=O)O)cc1)N(Cc1cccc(C(F)(F)F)c1)CC2 [Compound 59, (S)-4-(1-(6-ethyl-1-(3-(trifluoromethyl)benzyl)-2,3-dihydro-1H-imidazo[1,2-b]pyrazole-7-carboxamido)ethyl)benzoic acid] |
| 5.87 nM | C[C@H](NC(=O)c1c(C(F)(F)F)nn2c1N(Cc1cccc(C(F)(F)F)c1)CC2)c1ccc(C(=O)NS(=O)(=O)c2ccc([N+](=O)[O-])cc2)cc1 [Compound 71, (S)—N-(1-(4-(((4-nitrophenyl)sulfonyl)carbamoyl)phenyl)ethyl)-6-(trifluoromethyl)-1-(3-(trifluoromethyl)benzyl)-2,3-dihydro-1H-imidazo[1,2-b]pyrazole-7-carboxamide] |
| 91.3 nM | C[C@H](NC(=O)c1c(C(F)(F)F)nn2c1N(c1ccc(Cl)cc1)CC2)c1ccc(C(=O)O)cc1 [Compound 50, (S)-4-(1-(1-(4-chlorophenyl)-6-(trifluoromethyl)-2,3-dihydro-1H-imidazo[1,2-b]pyrazole-7-carboxamido)ethyl)benzoic Acid] |
| 4.73 nM | C[C@H](NC(=O)c1c(C(F)(F)F)nn2c1N(Cc1cccc(C(F)(F)F)c1)CC2)c1ccc(C(=O)O)cn1 [Compound 39, (S)-6-(1-(6-(trifluoromethyl)-1-(3-(trifluoromethyl)benzyl)-2,3-dihydro-1H-imidazo[1,2-b]pyrazole-7-carboxamido)ethyl)nicotinic Acid] |
| 1.57 nM | C[C@H](NC(=O)c1c(C(F)(F)F)nn2c1N(Cc1cccc(N(C)C)c1)CC2)c1ccc(C(=O)O)cc1 [Compound 89, (S)-4-(1-(1-(3-(dimethylamino)benzyl)-6-(trifluoromethyl)-2,3-dihydro-1H-imidazo[1,2-b]pyrazole-7-carboxamido)ethyl)benzoic Acid] |
| 1.1 nM | Cc1cn(Cc2cccc(C(F)(F)F)c2)c2c(C(=O)N[C@@H](C)c3ccc(C(=O)O)cc3)c(C(F)(F)F)nn12 [Compound 82, (S)-4-(1-(3-methyl-6-(trifluoromethyl)-1-(3-(trifluoromethyl)benzyl)-1H-imidazo[1,2-b]pyrazole-7-carboxamido)ethyl)benzoic acid] |
| 8.2 nM | COC(=O)c1ccc([C@H](C)NC(=O)c2c(C(F)(F)F)nn3c2N(Cc2cccc(C(F)(F)F)c2)CC3)cc1F [Compound 24, Methyl (S)-2-fluoro-4-(1-(6-(trifluoromethyl)-1-(3-(trifluoromethyl)benzyl)-2,3-dihydro-1H-imidazo[1,2-b]pyrazole-7-carboxamido)ethyl)benzoate] |
